The source of these data is patent US20200197533A1, “COMBINATION CANCER THERAPY USING CHIMERIC ANTIGEN RECEPTOR ENGINEERED NATURAL KILLER CELLS AS CHEMOTHERAPEUTIC DRUG CARRIERS” (priority 2017, published 2020).

Entries after “also recorded” stand apart in the source; their conditions may differ.

One series concerns lymphoma cells. To be noted: drug-loaded nanocapsules conjugated to murine T cells; cited from earlier work.
For another series, the system named is T cell carriers. As to conditions: drug-loaded nanocapsules conjugated to murine T cells; cited from earlier work.
For another series, the system named is SKOV3 cells. The series is described as follows: Cell viability (XTT) assay with cMLV(PTX). In kind it is cell-based. As to conditions: various concentrations of cMLV(PTX), compared with NK cells. Here is the method: (§1) NK92 and SKOV3 cells were seeded in 96-well plates at 2×10^4 cells per well in 10% FBS-containing media and grown at 37° C. in the presence of 5% CO2 for 6 hours. Cells were incubated with various concentrations of cMLV (PTX) as previously described (Liu, Y, et al (2014). Codelivery of doxorubicin and paclitaxel by cross-linked multilamellar liposome enables synergistic antitumor activity. Mol Pharm 11: 1651-1661) and cell viability was assessed using the Cell Proliferation Kit II (XTT assay) from Roche Applied Science (Indianapolis, Ind.) according to the manufacturer's instructions. Cell viability percentage was determined by subtracting absorbance values obtained from media-only wells from the treated wells and then normalized by the control wells containing cells without drugs.

The test system of a further series is NK92 cells. The series is described as follows: Cell viability (XTT) assay with cMLV(PTX). The format is cell-based, human. To be noted: various concentrations of cMLV(PTX). Here is the method: as §1

Consider `CCc1c2c(nc3ccc(O)cc13)-c1cc3c(c(=O)n1C2)COC(=O)[C@]3(O)CC` [SN-38], for which the “killing of lymphoma cells” value with lymphoma cells is given as “effectively killed lymphoma cells”. In the series with T cell carriers, the “toxicity to the T cell carriers” value is on record as “not toxic to the T cell carriers”.
Consider `CC(=O)O[C@H]1C(=O)[C@@]2(C)[C@H]([C@H](OC(=O)c3ccccc3)[C@]3(O)C[C@H](OC(=O)[C@H](O)[C@@H](NC(=O)c4ccccc4)c4ccccc4)C(C)=C1C3(C)C)[C@]1(OC(C)=O)CO[C@@H]1C[C@@H]2O` [PTX, paclitaxel], for which the “cell viability of SKOV3 tumor cells exposed to PTX” value with SKOV3 cells is given as “more sensitive to PTX; also recorded: can kill tumor cells”. For the same compound, the “cell viability of NK92 carrier cells exposed to PTX” value with NK92 cells is “not NK92 cells”.
